One test concerns the target Recombinant Cat D (Homo sapiens (Human), UniProt P07339). Kind of test: In vitro enzymatic Cathepsin D (Cat D) FRET assay. It is filed as biochemical. As to conditions: read-out: IC50 IP (μM) CatD. The procedure, abridged:
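CHO-expressed enzyme; buffer 0.05 M citrate pH 3.5, 5 mM CHAPS, 10% DMSO final. Start with FRET substrate 20 nM, 1 h incubation, Tris stop (pH to neutral), fluorescence ex 500 nm/em 580 nm.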

Test [1] deals with Aβ40 in conditioned medium of cells stably expressing Amyloid Precursor Protein (APP). Kind of test: In vitro BACE-1 cell-based assay (Aβ40 sandwich ELISA). Conditions: read-out: IC50 IP (μM) BACE1 cell. The procedure, abridged:
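APP-expressing cells treated 24 h at 37 °C with compound in 10-point dose response (top 100 μM or 10 μM, 0.1% DMSO final). Secreted Aβ40 in conditioned medium quantified by sandwich ELISA (pAb40 capture, biotinylated 6E10 detection, time-resolved europium fluorescence); IC50 from percent inhibition versus concentration.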

The target of the next test is human recombinant BACE1 (Homo sapiens (Human), UniProt P56817). Description: In vitro enzymatic BACE1 FRET assay. It is filed as biochemical. As to conditions: read-out: IC50 IP (μM) BACE1 enzyme. The essentials: (§1)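 Ni-NTA-purified recombinant protease incubated with compound; reaction started with 50 nM FRET peptide substrate (fluorophore/quencher flanking the BACE cleavage site) and run 1 h. Stopped with Tris buffer raising pH to neutral; fluorescence read at ex 488/em 590 nm.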
human recombinant BACE1, sequence (P56817 46-501): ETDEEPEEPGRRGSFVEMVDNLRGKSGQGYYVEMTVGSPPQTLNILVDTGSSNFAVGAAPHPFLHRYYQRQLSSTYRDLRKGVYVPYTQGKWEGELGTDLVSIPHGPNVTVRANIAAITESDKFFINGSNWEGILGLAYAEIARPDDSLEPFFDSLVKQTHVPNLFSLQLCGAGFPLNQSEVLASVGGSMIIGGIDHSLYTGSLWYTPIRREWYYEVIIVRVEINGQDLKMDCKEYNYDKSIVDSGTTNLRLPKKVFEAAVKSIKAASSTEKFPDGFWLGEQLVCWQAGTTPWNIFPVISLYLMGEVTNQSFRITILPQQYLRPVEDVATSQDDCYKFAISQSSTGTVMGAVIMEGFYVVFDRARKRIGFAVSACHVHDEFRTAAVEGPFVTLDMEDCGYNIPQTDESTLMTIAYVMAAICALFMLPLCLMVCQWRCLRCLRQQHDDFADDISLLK

For the next test, the target named is human recombinant BACE2 (Homo sapiens (Human), UniProt Q9Y5Z0). Description: In vitro enzymatic BACE2 FRET assay. Type of test: biochemical. Conditions: read-out: IC50 IP (μM) BACE2 enzyme. The procedure, abridged:
as §1

As usually defined, the IC50 is the point on the concentration scale where inhibition reaches its midpoint.

The structures appear in SMILES notation. Bounds are passed on as bounds.

Recombinant Cat D, sequence (P07339 65-412): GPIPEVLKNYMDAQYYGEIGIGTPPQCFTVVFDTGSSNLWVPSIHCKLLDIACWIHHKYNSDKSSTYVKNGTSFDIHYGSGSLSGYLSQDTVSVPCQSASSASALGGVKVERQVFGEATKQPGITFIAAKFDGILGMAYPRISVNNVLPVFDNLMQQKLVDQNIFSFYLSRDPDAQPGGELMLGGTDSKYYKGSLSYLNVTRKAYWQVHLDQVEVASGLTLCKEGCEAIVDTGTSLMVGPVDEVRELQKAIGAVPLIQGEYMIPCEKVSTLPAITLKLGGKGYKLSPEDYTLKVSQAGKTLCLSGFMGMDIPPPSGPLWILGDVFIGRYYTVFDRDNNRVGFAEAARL
human recombinant BACE2, sequence (Q9Y5Z0 63-518): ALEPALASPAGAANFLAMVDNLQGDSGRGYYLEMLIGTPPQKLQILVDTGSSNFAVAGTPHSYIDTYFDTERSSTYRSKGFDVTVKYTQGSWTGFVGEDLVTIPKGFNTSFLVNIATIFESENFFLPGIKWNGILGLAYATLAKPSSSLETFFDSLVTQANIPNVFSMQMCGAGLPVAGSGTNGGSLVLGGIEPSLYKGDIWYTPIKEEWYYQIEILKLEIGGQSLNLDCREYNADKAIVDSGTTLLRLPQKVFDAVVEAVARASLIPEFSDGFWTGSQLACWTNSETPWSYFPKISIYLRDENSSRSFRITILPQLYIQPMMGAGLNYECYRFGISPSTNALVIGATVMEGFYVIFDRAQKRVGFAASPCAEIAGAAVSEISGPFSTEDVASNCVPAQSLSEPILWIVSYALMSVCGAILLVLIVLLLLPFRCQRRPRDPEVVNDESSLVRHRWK

In the case of `C#CCOc1cnc(C(=O)Nc2ccc(F)c([C@@]3(CF)N=C(N)S[C@@]4(/C=C/C(=O)N(C)C)C[C@H]43)c2)cn1` [Example 774, N-(3-((1R,5S,6S)-3-amino-1-((1E)-3-(dimethylamino)-3-oxo-1-propen-1-yl)-5-(fluoromethyl)-2-thia-4-azabicyclo[4.1.0]hept-3-en-5-yl)-4-fluorophenyl)-5-(2-propyn-1-yloxy)-2-pyrazinecarboxamide], the IC50 at Recombinant Cat D was 7.95 µM; in test [1], 0.000583 µM; on human recombinant BACE1 it was 0.000313 µM; on human recombinant BACE2, 0.00575 µM.

Consider `CN(C)C(=O)/C=C/[C@]12C[C@H]1[C@@](CF)(c1cc(Nc3ncnc4cc(OCc5ncco5)cnc34)ccc1F)N=C(N)S2` [Example 775, (2E)-3-((1R,5S,6S)-3-amino-5-(fluoromethyl)-5-(2-fluoro-5-((7-(1,3-oxazol-2-ylmethoxy)pyrido[3,2-d]pyrimidin-4-yl)amino)phenyl)-2-thia-4-azabicyclo[4.1.0]hept-3-en-1-yl)-N,N-dimethyl-2-propenamide], for which the IC50 on Recombinant Cat D turned out to be 22.8 µM; in test [1] it was 0.00323 µM; at human recombinant BACE1, 0.00112 µM; at human recombinant BACE2, 0.0602 µM.

For `C#CCOc1cnc2c(Nc3ccc(F)c([C@@]4(CF)N=C(N)S[C@@]5(/C=C/C(=O)N(C)C)C[C@H]54)c3)ncnc2c1` [Example 776, (2E)-3-((1R,5S,6S)-3-amino-5-(fluoromethyl)-5-(2-fluoro-5-((7-(2-propyn-1-yloxy)pyrido[3,2-d]pyrimidin-4-yl)amino)phenyl)-2-thia-4-azabicyclo[4.1.0]hept-3-en-1-yl)-N,N-dimethyl-2-propenamide], the IC50 amounted to 293 µM on Recombinant Cat D, 0.00305 µM in test [1], 0.0012 µM at human recombinant BACE1 and 0.0264 µM on human recombinant BACE2.

Consider `C/C(=C/[C@]12C[C@H]1[C@@](CF)(c1cc(NC(=O)c3ccc(Cl)cn3)ccc1F)N=C(N)S2)C(=O)N1CCOCC1` [Example 777, N-(3-((1R,5S,6S)-3-amino-5-(fluoromethyl)-1-((Z)-2-methyl-3-morpholino-3-oxoprop-1-en-1-yl)-2-thia-4-azabicyclo[4.1.0]hept-3-en-5-yl)-4-fluorophenyl)-5-chloropicolinamide], for which the IC50 is 834 µM on Recombinant Cat D, 0.000416 µM in test [1], 0.000274 µM at human recombinant BACE1 and under 0.00203 µM at human recombinant BACE2.

Take `C/C(=C\[C@]12C[C@H]1[C@@](CF)(c1cc(NC(=O)c3ccc(Cl)cn3)ccc1F)N=C(N)S2)C(=O)N1CCOCC1` [Example 778, N-(3-((1R,5S,6S)-3-amino-5-(fluoromethyl)-1-((E)-2-methyl-3-morpholino-3-oxoprop-1-en-1-yl)-2-thia-4-azabicyclo[4.1.0]hept-3-en-5-yl)-4-fluorophenyl)-5-chloropicolinamide]: the IC50 at Recombinant Cat D came to 557 µM; in test [1], 0.0134 µM; at human recombinant BACE1, 0.00558 µM; on human recombinant BACE2, 0.0026 µM.

Take `C#CCOc1cnc2c(Nc3ccc(F)c([C@@]4(CF)N=C(N)S[C@@]5(C(=O)N(C)C)C[C@H]54)c3)nccc2n1` [Example 779, (1S,5S,6S)-3-amino-5-(fluoromethyl)-5-(2-fluoro-5-((2-(2-propyn-1-yloxy)pyrido[3,4-b]pyrazin-5-yl)amino)phenyl)-N,N-dimethyl-2-thia-4-azabicyclo[4.1.0]hept-3-ene-1-carboxamide]: the half-maximal inhibitory concentration (IC50) at Recombinant Cat D is over 400 µM; in test [1] it was 0.00082 µM; on human recombinant BACE1, 0.000728 µM; at human recombinant BACE2, under 0.00203 µM.

Consider `C#CCOc1cnc(C(=O)Nc2ccc(F)c([C@@]3(CF)N=C(N)S[C@@]4(c5cnco5)C[C@@H]34)c2)cn1` [Example 780, N-(3-((1S,5S,6S)-3-amino-5-(fluoromethyl)-1-(1,3-oxazol-5-yl)-2-thia-4-azabicyclo[4.1.0]hept-3-en-5-yl)-4-fluorophenyl)-5-(2-propyn-1-yloxy)-2-pyrazinecarboxamide], for which the IC50 at Recombinant Cat D was 116 µM; in test [1], 0.00126 µM; on human recombinant BACE1, 0.00022 µM; on human recombinant BACE2, under 0.0061 µM.

For `C#CCOc1cnc2c(Nc3ccc(F)c([C@@]4(CF)N=C(N)S[C@@]5(c6cnco6)C[C@@H]45)c3)nccc2n1` [Example 781, N-(3-((1S,5S,6S)-3-amino-5-(fluoromethyl)-1-(1,3-oxazol-5-yl)-2-thia-4-azabicyclo[4.1.0]hept-3-en-5-yl)-4-fluorophenyl)-2-(2-propyn-1-yloxy)pyrido[3,4-b]pyrazin-5-amine], the IC50 at Recombinant Cat D amounted to 397 µM; in test [1], 0.00577 µM; on human recombinant BACE1, 0.000422 µM; at human recombinant BACE2 it was 0.00329 µM.

Turning to `C#CCOc1cnc2c(Nc3ccc(F)c([C@@]4(CF)N=C(N)S[C@@]5(c6cnco6)C[C@@H]45)c3)ncnc2c1` [Example 782, N-(3-((1S,5S,6S)-3-amino-5-(fluoromethyl)-1-(1,3-oxazol-5-yl)-2-thia-4-azabicyclo[4.1.0]hept-3-en-5-yl)-4-fluorophenyl)-7-(2-propyn-1-yloxy)pyrido[3,2-d]pyrimidin-4-amine], the IC50 turned out to be 792 µM on Recombinant Cat D, 0.0197 µM in test [1], 0.000577 µM at human recombinant BACE1 and 0.0245 µM on human recombinant BACE2.

For the compound `NC1=N[C@](CF)(c2cc(NC(=O)c3cnc(OCc4ncco4)cn3)ccc2F)[C@@H]2C[C@]2(c2cnco2)S1` [Example 783, N-(3-((1S,5S,6S)-3-amino-5-(fluoromethyl)-1-(1,3-oxazol-5-yl)-2-thia-4-azabicyclo[4.1.0]hept-3-en-5-yl)-4-fluorophenyl)-5-(1,3-oxazol-2-ylmethoxy)-2-pyrazinecarboxamide], the half-inhibitory concentration (IC50) on Recombinant Cat D was over 400 µM; in test [1], 0.00485 µM; on human recombinant BACE1 it was 0.000501 µM; on human recombinant BACE2, 0.00245 µM.

For the compound `C#CCOc1cnc(C(=O)Nc2ccc(F)c([C@@]3(CF)N=C(N)S[C@@]4(c5ocnc5C)C[C@@H]34)c2)cn1` [Example 784, N-(3-((1S,5S,6S)-3-amino-5-(fluoromethyl)-1-(4-methyloxazol-5-yl)-2-thia-4-azabicyclo[4.1.0]hept-3-en-5-yl)-4-fluorophenyl)-5-(prop-2-yn-1-yloxy)pyrazine-2-carboxamide], the IC50 is 166 µM at Recombinant Cat D, 0.00152 µM in test [1], 0.000318 µM on human recombinant BACE1 and under 0.00203 µM at human recombinant BACE2.

On to `NC1=N[C@](CF)(c2cc(NC(=O)c3ccc(Cl)cn3)ccc2F)[C@@H]2C[C@]2(c2cnco2)S1` [Example 785, N-(3-((1S,5S,6S)-3-amino-5-(fluoromethyl)-1-(1,3-oxazol-5-yl)-2-thia-4-azabicyclo[4.1.0]hept-3-en-5-yl)-4-fluorophenyl)-5-chloro-2-pyridinecarboxamide], for which the IC50 on Recombinant Cat D is 621 µM; in test [1], 0.0102 µM; at human recombinant BACE1, 0.00112 µM; on human recombinant BACE2 it was under 0.00203 µM.

As to `NC1=N[C@](CF)(c2cc(NC(=O)c3ccc(Cl)cn3)ccc2F)[C@@H]2C[C@]2(c2ccon2)S1` [Example 786, N-(3-((1S,5S,6S)-3-amino-5-(fluoromethyl)-1-(isoxazol-3-yl)-2-thia-4-azabicyclo[4.1.0]hept-3-en-5-yl)-4-fluorophenyl)-5-chloropicolinamide], the IC50 on Recombinant Cat D was 584 µM; in test [1], 0.0464 µM; on human recombinant BACE1, 0.000976 µM; on human recombinant BACE2, under 0.00203 µM.

Consider `Cc1ncoc1[C@]12C[C@H]1[C@@](CF)(c1cc(NC(=O)c3ccc(Cl)cn3)ccc1F)N=C(N)S2` [Example 787, N-(3-((1S,5S,6S)-3-amino-5-(fluoromethyl)-1-(4-methyl-1,3-oxazol-5-yl)-2-thia-4-azabicyclo[4.1.0]hept-3-en-5-yl)-4-fluorophenyl)-5-chloro-2-pyridinecarboxamide], for which the IC50 is 1230 µM on Recombinant Cat D, 0.0139 µM in test [1], 0.000847 µM at human recombinant BACE1 and under 0.00203 µM on human recombinant BACE2.

Turning to `C#CCOc1cnc2c(Nc3ccc(F)c([C@@]4(CF)N=C(N)S[C@@]5(c6ocnc6C)C[C@@H]45)c3)ncnc2c1` [Example 788, N-(3-((1S,5S,6S)-3-amino-5-(fluoromethyl)-1-(4-methyl-1,3-oxazol-5-yl)-2-thia-4-azabicyclo[4.1.0]hept-3-en-5-yl)-4-fluorophenyl)-7-(2-propyn-1-yloxy)pyrido[3,2-d]pyrimidin-4-amine], the IC50 at Recombinant Cat D turned out to be 485 µM; in test [1] it was 0.0161 µM; at human recombinant BACE1, 0.00127 µM; on human recombinant BACE2, 0.0122 µM.

Regarding `C#CCOc1ccc(C(=O)Nc2ccc(F)c([C@@]3(CF)N=C(N)S[C@@]4(c5ocnc5C)C[C@@H]34)c2)nc1` [Example 789, N-(3-((1S,5S,6S)-3-amino-5-(fluoromethyl)-1-(4-methyl-1,3-oxazol-5-yl)-2-thia-4-azabicyclo[4.1.0]hept-3-en-5-yl)-4-fluorophenyl)-5-(2-propyn-1-yloxy)-2-pyridinecarboxamide], the IC50 at Recombinant Cat D was 835 µM; in test [1] it was 0.0259 µM; on human recombinant BACE1 it was 0.000528 µM; at human recombinant BACE2, 0.00936 µM.

The values above are taken from patent US20160046618A1, “Cyclopropyl Fused Thiazin-2-Amine Compounds as Beta-Secretase Inhibitors and Methods of Use” (AMGEN INC., priority 2014, published 2016).
